Experimental data taken from the supplement of paper PMC10307832.

Tests used:
Experiment in all cases: relative viability (nuclei count vs DMSO), 5 days (fraction); higher = more cells survive
[1] = compound: COc1cc2nc(N3CCCN(C)CC3)nc(NC3CCN(Cc4ccccc4)CC3)c2cc1OC + Cc1cc(Nc2cc(N3CCN(C)CC3)nc(Sc3ccc(NC(=O)C4CC4)cc3)n2)n[nH]1 [Tozasertib] (partner 0.1 µM)
In short: (§1)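 Relative viability was taken as the ratio of nuclei in treated wells to nuclei in vehicle wells. Lung cancer cell lines in 1536-well plates received compounds by pin tool one day after seeding, either one drug alone or a fixed anchor-drug dose plus five library-drug doses (not always all listed) in √10 steps. Nuclei were counted on 4× images after 5 days of treatment, and values are medians of duplicate plates.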

[2] = compound: COc1cc2nc(N3CCCN(C)CC3)nc(NC3CCN(Cc4ccccc4)CC3)c2cc1OC + NC(=O)Nc1cc(-c2cccc(F)c2)sc1C(=O)N[C@H]1CCCNC1 [AZD7762] (partner 0.2 µM)
In short: as §1

[3] = compound: COc1cc2nc(N3CCCN(C)CC3)nc(NC3CCN(Cc4ccccc4)CC3)c2cc1OC + Nc1nc2[nH]cc(CCc3ccc(C(=O)N[C@@H](CCC(=O)O)C(=O)O)cc3)c2c(=O)[nH]1 [Pemetrexed] (partner 0.2 µM)
In short: as §1

AZD6482 + Phenformin = compound: Cc1cc([C@@H](C)Nc2ccccc2C(=O)O)c2nc(N3CCOCC3)cc(=O)n2c1 [AZD6482] + N=C(N)NC(=N)NCCc1ccccc1 [Phenformin] (partner 250 µM)
In short: as §1

Cell Line | relative viability ([1]; first compound 0.2 µM) | relative viability ([1]; first compound 0.6325 µM) | relative viability ([1]; first compound 2 µM) | relative viability ([1]; first compound 6.325 µM) | relative viability ([2]; first compound 0.2 µM) | relative viability ([2]; first compound 0.6325 µM) | relative viability ([2]; first compound 2 µM) | relative viability ([2]; first compound 6.325 µM) | relative viability ([3]; first compound 0.2 µM) | relative viability ([3]; first compound 0.6325 µM) | relative viability ([3]; first compound 2 µM) | relative viability ([3]; first compound 6.325 µM) | relative viability (AZD6482 + Phenformin; first compound 0.08 µM) | relative viability (AZD6482 + Phenformin; first compound 0.253 µM) | relative viability (AZD6482 + Phenformin; first compound 0.8 µM) | relative viability (AZD6482 + Phenformin; first compound 2.53 µM) | relative viability (AZD6482 + Phenformin; first compound 8 µM)
NCI-H460 | 0.535 | 0.399 | 0.361 | 0.625 | 0.746 | 0.604 | 0.562 | 0.636 | 0.063 | 0.0592 | 0.0662 | 0.0719 | 0.492 | 0.512 | 0.535 | 0.326 | 0.182
NCI-H522 | 0.573 | 0.671 | 0.547 | 0.606 | 0.901 | 0.791 | 0.986 | 0.792 | 1.05 | 0.924 | 1.09 | 0.78 | 0.607 | 0.764 | 0.7 | 0.654 | 0.396
NCI-H596 | 0.961 | 1.1 | 0.91 | 0.893 | 1.16 | 1.03 | 1.23 | 1.06 | 0.515 | 0.534 | 0.503 | 0.468 | 0.658 | 0.576 | 0.636 | 0.691 | 0.737
NCI-H647 | 0.486 | 0.272 | 0.366 | 0.207 | 0.479 | 0.602 | 0.512 | 0.419 | 0.161 | 0.199 | 0.19 | 0.152 | 0.417 | 0.473 | 0.399 | 0.262 | 0.324
NCI-H650 | 0.773 | 0.714 | 0.793 | 0.709 | 0.95 | 0.93 | 1.02 | 0.67 | 0.935 | 0.877 | 0.924 | 0.92 | 0.467 | – | 0.431 | 0.292 | 0.31
NCI-H838 | 0.28 | 0.27 | 0.286 | 0.246 | 0.974 | 0.908 | 1.01 | 0.892 | 0.259 | 0.263 | 0.293 | 0.243 | 0.459 | 0.519 | 0.497 | 0.263 | 0.397
NCI-H1355 | 0.565 | 0.539 | 0.582 | 0.546 | 0.738 | 0.693 | 0.941 | 0.661 | 1.06 | 1.03 | 1.01 | 0.945 | 0.41 | 0.386 | 0.414 | 0.308 | 0.329
NCI-H1395 | 0.784 | 0.705 | 0.835 | 0.81 | 0.413 | 0.446 | 0.37 | 0.335 | 0.892 | 0.84 | 0.824 | 0.635 | 0.388 | 0.385 | 0.438 | 0.347 | 0.302
NCI-H1437 | 0.442 | 0.433 | 0.469 | 0.461 | 1.15 | 1.17 | 1.17 | 1.17 | 0.279 | 0.293 | 0.36 | 0.324 | 0.268 | 0.287 | 0.262 | 0.223 | 0.261
NCI-H1651 | 0.846 | 0.75 | 1.01 | 0.668 | 0.446 | 0.373 | 0.452 | 0.502 | 0.623 | 0.598 | 0.597 | 0.624 | 0.281 | 0.296 | 0.33 | 0.253 | 0.242
